Data reported in paper PMC10254233, “Synthesis and In Vitro Biological Evaluation of p-Carborane-Based Di-tert-butylphenol Analogs” (Molecules, 2023).

Assays:
[1] = Lipophilicity logD7.4 by HPLC; conditions: pH 7.4, HPLC method
A549 lung adenocarcinoma = assay: Cell viability, MTT assay, A549; assay type: cell-based, human; conditions: 72 h, mean ± SD
Protocol: (§1) Five human cell lines (A375 melanoma, A549 lung adenocarcinoma, HCT116 and HT29 colorectal carcinoma, MDA-MB-231 triple-negative breast adenocarcinoma) were used to study the antitumor effects of the di-tert-butylphenols and their respective carborane analogs. All selected cell lines were derived from inflammation-associated tumors.
(§2) After the incubation period, the supernatant was discarded from the wells, and the cells were washed two times with 200 µL of PBS. Next, MTT solution at a final concentration of 0.5 mg/mL was added and incubated at 37 °C until purple formazan crystals were formed (30 min to one hour). After incubation, the dye was discarded. In order to dissolve the formed formazan crystals DMSO was added, and the absorbance was measured at λmax = 540 nm, with the reference/background wavelength of 670 nm. All results are expressed as a percentage of the control value which was arbitrary set to 100%. After 72 h treatment, cells were washed with 200 µL of PBS and fixed with 4% paraformaldehyde (PFA) for 15 min at room temperature (RT). Next, cells were stained with 1% CV solution. After 20 min, cells were washed in tap water and dried on air. Dye was dissolved in 33% acetic acid and the absorbance was measured at λmax = 540 nm, with the reference/background wavelength of 670 nm. Results were expressed as a percentage of the control value which was arbitrary set to 100%.
(§3) 1. General methods, materials, and procedures
(§4) 1.1.1. Reagents and cells
(§5) Reagents and cells were obtained from following manufacturers: Capricorn Scientific GmbH (Hessen, Germany) – Culture medium RPMI-1640, Dulbecco's Modified Eagle Medium (DMEM), and fetal bovine serum (FBS). Serva (Heidelberg, Germany) – Paraformaldehyde (PFA). Sigma (St. Louis, MO, USA) – Ethylenediaminetetraacetic acid (EDTA), Dimethyl sulfoxide (DMSO), chloroquine, CV, Triton X-100, RNase, PI, PBS, 3-MA, CFSE, and fluorescent mounting medium. AppliChem (MO, USA) –MTT. Thermo Fisher Scientific (Waltham, MA, USA) – DHR. R&D Systems (Minneapolis, MN, USA) – ApoStat. BD (Pharmingen, San Diego, SAD) – Annexin V-FITC (AnnV). Biological Industries (Cromwell, CT, USA) – Penicillin Streptomycin solution. American Type Culture Collection (ATCC, Manassas, Virginia, USA) – Human lung carcinoma (A549), human breast adenocarcinoma (MDA-MB-231), human colorectal ade-nocarcinoma (HT-29), human colorectal carcinoma (HCT116) and human melanoma (A375).
(§6) Cell lines (A375, HCT116, HT-29 and MDA-MB-231) were cultivated in HEPES-buffered RPMI-1640 medium while A549 cell line was cultivated in Dulbecco's Modified Eagle Medium (DMEM) which were previously supplemented with 10% heat-inactivated FBS, penicillin (100 units/mL), and streptomycin (100 μg/mL). All cells were kept at 37 °C in a humidified atmosphere with 5% CO2. For viability determi-nation cells were seeded at following densities in 96-well plates: 4 x 10^3 cells/well (A375, HT-29 and MDA-MB-231), 5 x 10^3 cells/well (HCT116), and 3 x 10^3 cells/well (A549). […]
(§7) Afterwards, cells were washed with phosphate-buffered saline (PBS) and stained with AnnV (15 μg/mL) and PI (15 μg/mL). After 15 min incubation at room temperature (RT) protected from light the cells were resuspended in AnnV-binding buffer and analysed using flow cytom-etry. HCT116 cells were incubated with pan-caspase inhibitor Apostat for 30 min at 37 °C to determine whether detected apoptosis was mediated by caspase activation. Afterwards, cells were washed with PBS and analyzed using flow cytometry. HCT116 cells were stained with 1 µg/mL of AO solution for 15 min at 37 °C to detect the presence of autophagic cell death. Afterwards cells were washed with PBS, resuspended and analyzed by flow cytometry (CyFlow® Space Partec using the PartecFloMax® software

[2] = tested on: HT-29 colorectal carcinoma; assay: Cell viability, MTT assay, HT-29; assay type: cell-based, human; conditions: 72 h, mean ± SD
Protocol: as §1, §2, §3, §4, §5, §6, §7

human recombinant COX-2 = target: T1, human recombinant COX-2 (Homo sapiens, UniProt P35354); assay: COX Fluorescent Inhibitor Screening Assay, COX-2; assay type: biochemical; conditions: in duplicate
T1 construct: purchased Cayman Chemical Company
T1 sequence (P35354 18-604): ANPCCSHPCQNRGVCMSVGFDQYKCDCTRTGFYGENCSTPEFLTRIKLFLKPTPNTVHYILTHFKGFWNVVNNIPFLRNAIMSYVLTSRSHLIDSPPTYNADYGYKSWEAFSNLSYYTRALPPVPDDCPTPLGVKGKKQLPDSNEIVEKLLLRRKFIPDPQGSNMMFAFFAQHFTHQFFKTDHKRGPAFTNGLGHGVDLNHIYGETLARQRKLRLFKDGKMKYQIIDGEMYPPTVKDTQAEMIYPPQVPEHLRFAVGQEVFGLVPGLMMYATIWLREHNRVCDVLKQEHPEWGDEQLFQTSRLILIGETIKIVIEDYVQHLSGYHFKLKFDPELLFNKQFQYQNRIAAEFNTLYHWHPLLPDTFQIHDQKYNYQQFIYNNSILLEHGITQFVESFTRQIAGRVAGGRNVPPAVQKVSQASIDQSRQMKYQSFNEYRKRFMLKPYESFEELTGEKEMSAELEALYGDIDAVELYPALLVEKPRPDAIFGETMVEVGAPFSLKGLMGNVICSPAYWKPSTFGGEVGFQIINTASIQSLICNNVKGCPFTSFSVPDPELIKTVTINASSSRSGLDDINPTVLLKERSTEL
Protocol: COX inhibition activity against ovine COX-1 and human COX-2 was determined using the fluorescence-based COX assay COX Fluorescent Inhibitor Screening Assay Kit (Cayman Chemical Company, Ann Arbor, MI, USA) according to the manufacturer’s instructions as previously reported by us. All compounds were screened at a concentration of 100 µM in duplicate.

Substance | logD7.4, HPLC [1] | IC50 (A549 lung adenocarcinoma) [µM] | IC50 [2] [µM] | % Inhibition at 100 µM COX-2 (human recombinant COX-2)
1-Hydroxy-12-(thiophen-2′-carbonyl)-1,12-dicarba-closo-dodecaborane(12) [Compound R-830-Cb] | 2.37 | 66.5 ± 1.7 | 65.6 ± 5.3 | 6%
(3E)-1-Hydroxy-12-(methylene-[1′-methoxypyrrolidine-2′-one])-1,12-dicarba-closo-dodecaborane(12) [Compound E-5110-Cb] | 1.50 | 177 ± 14.5 | 120 ± 9.7 | n.i. (n.i. = no inhibition (%inhibition below 5%))
(3E)-1-Hydroxy-12-(methylene-[2′-ethylisothiazolidine-1′,1′-dioxide])-1,12-dicarba-closo-dodecaborane(12) [Compound S-2474-Cb] | 1.88 | 122 ± 10.4 | 81.8 ± 6.1 | n.i. (n.i. = no inhibition (%inhibition below 5%))
(3E)-1-Hydroxy-12-(methylene-[dihydrofurane-2′(3H)-one])-1,12-dicarba-closo-dodecaborane(12) [KME-4-Cb] | 1.87 | 120 ± 7 | 139 ± 5.4 | n.i. (n.i. = no inhibition (%inhibition below 5%))
